Test results taken from article PMC4503954, “The mitochondrial malate dehydrogenase 1 gene GhmMDH1 is involved in plant and root growth under phosphorus deficiency conditions in cotton” (Scientific Reports, 2015).

Target: T1, GhmMDH1 (Gossypium hirsutum, UniProt A0A1U8J4P3)
T1 construct: gene LOC107903665; N-terminus […]; (27-residue mitochondrial target signal)
Experiment: NADH/NAD+ absorbance at […] nm, nonlinear regression
Format: biochemical
Settings: 50 mM MOPS pH 7.5, 25 °C

T1 sequence (A0A1U8J4P3 entry or part of it): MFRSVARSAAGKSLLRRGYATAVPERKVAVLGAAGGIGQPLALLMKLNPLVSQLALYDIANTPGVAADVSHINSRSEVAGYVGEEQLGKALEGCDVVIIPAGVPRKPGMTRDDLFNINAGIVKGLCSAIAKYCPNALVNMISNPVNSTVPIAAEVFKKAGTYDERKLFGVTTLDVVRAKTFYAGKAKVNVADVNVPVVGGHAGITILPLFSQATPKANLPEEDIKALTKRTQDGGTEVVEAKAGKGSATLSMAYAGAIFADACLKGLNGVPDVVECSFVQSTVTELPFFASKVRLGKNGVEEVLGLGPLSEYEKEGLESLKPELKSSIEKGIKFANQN

O=C(O)C[C@H](O)C(=O)O [Malate]
Km (1.0 mM NAD+): 2910 ± 290 µM

NC(=O)C1=CN([C@@H]2O[C@H](COP(=O)(O)OP(=O)(O)OC[C@H]3O[C@@H](n4cnc5c(N)ncnc54)[C@H](O)[C@@H]3O)[C@@H](O)[C@H]2O)C=CC1 [NADH]
Km (0.5 mM OAA): 107 ± 19 µM

NC(=O)c1ccc[n+]([C@@H]2O[C@H](COP(=O)(O)OP(=O)(O)OC[C@H]3O[C@@H](n4cnc5c(N)ncnc54)[C@H](O)[C@@H]3O)[C@@H](O)[C@H]2O)c1 [NAD^+]
Km (50 mM L-malate): 766 ± 84 µM

O=C(O)CC(=O)C(=O)O [OAA]
Km (0.2 mM NADH): 132 ± 25 µM
